In US9434763B2, “Derivatives of pyridinone as inhibitors for tissue transglutaminase” (ZEDIRA GMBH, priority 2012, dated 2016) one finds IC50 data, which are given here for 21 compounds.

The experiment deals with T1, His tagged recombinant human tissue transglutaminase (His6-rh-TG2) (Homo sapiens, UniProt P21980).
T1 construct: purchased Zedira T002
T1 sequence (P21980 1-687): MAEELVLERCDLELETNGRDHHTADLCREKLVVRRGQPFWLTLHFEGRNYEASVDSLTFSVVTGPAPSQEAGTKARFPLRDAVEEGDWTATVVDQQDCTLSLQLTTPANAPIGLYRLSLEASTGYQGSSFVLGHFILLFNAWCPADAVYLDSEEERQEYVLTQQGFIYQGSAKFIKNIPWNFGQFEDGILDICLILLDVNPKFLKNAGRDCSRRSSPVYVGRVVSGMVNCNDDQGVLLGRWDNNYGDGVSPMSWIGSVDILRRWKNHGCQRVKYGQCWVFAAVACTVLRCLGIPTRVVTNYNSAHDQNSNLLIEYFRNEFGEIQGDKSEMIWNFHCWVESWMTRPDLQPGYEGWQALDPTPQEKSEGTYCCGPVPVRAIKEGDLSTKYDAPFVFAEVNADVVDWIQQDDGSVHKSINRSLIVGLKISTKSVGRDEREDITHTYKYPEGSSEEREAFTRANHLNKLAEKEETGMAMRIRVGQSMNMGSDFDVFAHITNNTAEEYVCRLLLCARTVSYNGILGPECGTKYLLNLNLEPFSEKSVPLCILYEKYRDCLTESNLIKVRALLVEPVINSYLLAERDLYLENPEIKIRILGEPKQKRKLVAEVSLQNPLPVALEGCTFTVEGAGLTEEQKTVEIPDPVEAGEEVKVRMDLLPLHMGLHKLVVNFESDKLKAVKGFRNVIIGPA
Nature of the experiment: Inactivation of human tissue transglutaminase, fluorescence assay with Abz-APE(CAD-DNP)QEA-OH. In kind it is biochemical. Particulars: substrate Abz-APE(CAD-DNP)QEA-OH, 37° C., pH=7.5. The procedure: General Method for Inactivation of Human Tissue Transglutaminase
250 μg lyophilized His tagged recombinant human tissue transglutaminase (His6-rh-TG2, Zedira product T002) are reconstituted by adding 150 μl water (resulting buffer 50 mM NaH2PO4, 150 mM NaCl, pH=8.0).
A 10 mM inhibitor stock solution in DMSO is prepared and is diluted with buffer (50 mM Tris-HCl, 10 mM CaCl2, 5 mM DTT, pH=7.5) each to the twentyfold of the concentration desired in the preparation (but at least 1/50 dilution resulting in a 2% DMSO concentration).
900 μl of an assay-solution consisting of 55.56 mM Tris, 11.11 mM CaCl2, 0.11% PEG8000, 5.56 mM DTT, 5.56 mM glycine methyl ester and 50 μM Abz-APE(CAD-DNP)QEA-OH, (Zedira product A102; patent No.: EP 1781807B1), pH=7.5 are added to a cuvette and heated in a measuring cell of a spectrophotometer to 37° C. 50 μl of the particular inhibitor solution are added to this solution (resulting in a concentration of less than 0.2% DMSO in the mixture).
7 μl of the transglutaminase solution reconstituted above are diluted with 51 μl buffer (50 mM Tris, 100 mM NaCl, 5 mM DTT, pH=7.5). 50 μl of this enzyme solution (10 μg His6-rhTG2) are added to the assay-solution containing the particular inhibitor concentration. It is incubated 5 min at 37° C. before measuring starts (λexc=313 nm and λem=418 nm, t=15 to 30 min).
The evaluation of the resulting enzyme activity is done using the slope of the straight line obtained by the increase in fluorescence.
To determine the non-inhibited enzyme activity, DMSO instead of inhibitor stock solution is used. IC50 values are determined by plotting the resulting enzyme activity against the logarithm of the inhibitor concentration. IC50 is defined as the concentration of inhibitor resulting in 50% of enzyme activity.
With `CCOC(=O)/C=C/CC[C@H](NC(=O)OCc1ccccc1)C(=O)Nc1cccn(CC(=O)NCCc2c(C)cc(C)cc2C)c1=O` [A1, (S,E)-Ethyl 6-(benzyloxycarbonylamino)-7-oxo-7-(2-oxo-1-(2-oxo-2-(2,4,6-trimethylphenethylamino)ethyl)-1,2-dihydropyridin-3-ylamino)hept-2-enoate], the IC50 came to 100 nM.
For `CCOC(=O)/C=C/CC[C@H](NC(=O)OCc1ccccc1)C(=O)Nc1ccc(C)n(CC(=O)NCCC(C)C)c1=O` [A2, (S,E)-Ethyl 6-(benzyloxycarbonylamino)-7-(1-(2-(isopentylamino)-2-oxoethyl)-6-methyl-2-oxo-1,2-dihydropyridin-3-ylamino)-7-oxohept-2-enoate], the half-inhibitory concentration (IC50) was 100 nM.
In the case of `CCOC(=O)/C=C/CC[C@H](NC(=O)OCc1ccccc1)C(=O)Nc1cccn(CC(=O)NCCC(C)C)c1=O` [A3, (S,E)-Ethyl 6-(benzyloxycarbonylamino)-7-(1-(2-(isopentylamino)-2-oxoethyl)-2-oxo-1,2-dihydropyridin-3-ylamino)-7-oxohept-2-enoate] it was 96 nM; in that of `CCOC(=O)/C=C/CC[C@H](NC(C)=O)C(=O)Nc1ccc(C)n(CC(=O)NCCC(C)C)c1=O` [A4, (S,E)-Ethyl 6-acetamido-7-(1-(2-(isopentylamino)-2-oxoethyl)-6-methyl-2-oxo-1,2-dihydropyridin-3-ylamino)-7-oxohept-2-enoate], 119 nM.
Next, `CCOC(=O)/C=C/CC[C@H](NC(=O)OCc1ccccc1)C(=O)Nc1ccc(C)n(CC(=O)NC(CC(=O)O)CC(C)C)c1=O` (stereo partly drawn) [A5, 3-(2-(3-((S,E)-2-(Benzyloxycarbonylamino)-7-ethoxy-7-oxohept-5-enamido)-6-methyl-2-oxopyridin-1(2H)-yl)acetamido)-5-methylhexanoic acid]: 130 nM.
Consider `CC(=O)N[C@@H](CC/C=C/C(=O)OC(C)C)C(=O)Nc1cccn(CC(=O)NCCC(C)C)c1=O` [A6, (S,E)-isopropyl 6-acetamido-7-(1-(2-(isopentylamino)-2-oxoethyl)-2-oxo-1,2-dihydropyridin-3-ylamino)-7-oxohept-2-enoate], for which the IC50 was found to be 532 nM.
As to `CCOC(=O)/C=C/CC[C@H](NC(=O)c1cccnc1)C(=O)Nc1ccc(C)n(CC(=O)NCCc2ccccc2)c1=O` [A8, (S,E)-Ethyl 7-(6-methyl-2-oxo-1-(2-oxo-2-(phenethylamino)ethyl)-1,2-dihydropyridin-3-ylamino)-6-(nicotinamido)-7-oxohept-2-enoate], the IC50 is 251 nM.
As for `CCOC(=O)/C=C/CC[C@H](NS(=O)(=O)Cc1ccc(Cl)cc1)C(=O)Nc1cccn(CC(=O)NCCC(C)C)c1=O` [A9, (S,E)-ethyl 6-((4-chlorophenyl)methylsulfonamido)-7-(1-(2-(isopentylamino)-2-oxoethyl)-2-oxo-1,2-dihydropyridin-3-ylamino)-7-oxohept-2-enoate], the IC50 turned out to be 708 nM.
In the case of `CCOC(=O)/C=C/CC[C@H](NC(=O)c1ccccc1)C(=O)Nc1cccn(CC(=O)NCCC(C)C)c1=O` [A10, (S,E)-Ethyl 6-benzamido-7-(1-(2-(isopentylamino)-2-oxoethyl)-2-oxo-1,2-dihydropyridin-3-ylamino)-7-oxohept-2-enoate] it was 73 nM.
As to `CCOC(=O)/C=C/CC[C@H](NC(=O)c1ccoc1)C(=O)Nc1cccn(CC(=O)NCCC(C)C)c1=O` [A11, (S,E)-Ethyl 6-(furan-3-carboxamido)-7-(1-(2-(isopentylamino)-2-oxoethyl)-2-oxo-1,2-dihydropyridin-3-ylamino)-7-oxohept-2-enoate], the IC50 was found to be 104 nM.
As to `CCOC(=O)/C=C/CC[C@H](NC(=O)c1ccsc1)C(=O)Nc1cccn(CC(=O)NCCC(C)C)c1=O` [A12, (S,E)-Ethyl 7-(1-(2-(isopentylamino)-2-oxoethyl)-2-oxo-1,2-dihydropyridin-3-ylamino)-7-oxo-6-(thiophene-3-carboxamido)hept-2-enoate], the IC50 worked out at 84 nM.
In the case of `CCOC(=O)/C=C/CC[C@H](NS(=O)(=O)c1ccoc1)C(=O)Nc1cccn(CC(=O)NCCC(C)C)c1=O` [A13, (S,E)-Ethyl 6-(furan-3-sulfonamido)-7-(1-(2-(isopentylamino)-2-oxoethyl)-2-oxo-1,2-dihydropyridin-3-ylamino)-7-oxohept-2-enoate] it was 83 nM; in that of `CCOC(=O)/C=C/CC[C@H](NC(=O)c1ccc(S(N)(=O)=O)cc1)C(=O)Nc1cccn(CC(=O)NCCC(C)C)c1=O` [A14, (S,E)-Ethyl 7-(1-(2-(isopentylamino)-2-oxoethyl)-2-oxo-1,2-dihydropyridin-3-ylamino)-7-oxo-6-(4-sulfamoylbenzamido)hept-2-enoate], 137 nM; in that of `CCOC(=O)/C=C/CC[C@H](NC(=O)c1ncsc1C)C(=O)Nc1cccn(CC(=O)NCCC(C)C)c1=O` [A15, (S,E)-Ethyl 7-(1-(2-(isopentylamino)-2-oxoethyl)-2-oxo-1,2-dihydropyridin-3-ylamino)-6-(5-methylthiazole-4-carboxamido)-7-oxohept-2-enoate], 92 nM.
In the case of `CCOC(=O)/C=C/CC[C@H](NC(=O)c1cccnc1)C(=O)Nc1cccn(CC(=O)NCCC(C)C)c1=O` [A16, (S,E)-Ethyl 7-(1-(2-(isopentylamino)-2-oxoethyl)-2-oxo-1,2-dihydropyridin-3-ylamino)-6-(nicotinamido)-7-oxohept-2-enoate] it was 104 nM.
In the case of `CCOC(=O)/C=C/CC[C@H](NC(=O)c1cc(C(F)(F)F)cc(C(F)(F)F)c1)C(=O)Nc1cccn(CC(=O)NCCC(C)C)c1=O` [A17, (S,E)-Ethyl 6-(3,5-bis(trifluoromethyl)benzamido)-7-(1-(2-(isopentylamino)-2-oxoethyl)-2-oxo-1,2-dihydropyridin-3-ylamino)-7-oxohept-2-enoate] it was 63 nM.
For the compound `CCOC(=O)/C=C/CC[C@H](NC(=O)c1ccc(N2CCCCC2)cc1)C(=O)Nc1cccn(CC(=O)NCCC(C)C)c1=O` [A18, (S,E)-Ethyl 7-(1-(2-(isopentylamino)-2-oxoethyl)-2-oxo-1,2-dihydropyridin-3-ylamino)-7-oxo-6-(4-(piperidin-1-yl)benzamido)hept-2-enoate], the IC50 is 175 nM.
In the case of `CCOC(=O)/C=C/CC[C@H](NC(=O)c1ccc(N2CCN(C)CC2)cc1)C(=O)Nc1cccn(CC(=O)NCCC(C)C)c1=O` [A20, (S,E)-Ethyl 7-(1-(2-(isopentylamino)-2-oxoethyl)-2-oxo-1,2-dihydropyridin-3-ylamino)-6-(4-(4-methylpiperazin-1-yl)benzamido)-7-oxohept-2-enoate] it was 202 nM; in that of `CCOC(=O)/C=C/CC[C@H](NC(=O)c1ccc2c(c1)OCCN2C)C(=O)Nc1cccn(CC(=O)NCCC(C)C)c1=O` [A21, (S,E)-Ethyl 7-(1-(2-(isopentylamino)-2-oxoethyl)-2-oxo-1,2-dihydropyridin-3-ylamino)-6-(4-methyl-3,4-dihydro-2H-benzo[b][1,4]oxazine-7-carboxamido)-7-oxohept-2-enoate], 111 nM.
With `CCOC(=O)/C=C/CC[C@H](NS(=O)(=O)c1ccccc1)C(=O)Nc1cccn(CC(=O)NCCC(C)C)c1=O` [A22, (S,E)-Ethyl 7-(1-(2-(isopentylamino)-2-oxoethyl)-2-oxo-1,2-dihydropyridin-3-ylamino)-7-oxo-6-(phenylsulfonamido)hept-2-enoate], the IC50 amounted to 133 nM.
In the case of `CCOC(=O)/C=C/CC[C@H](NS(=O)(=O)c1ccc(O)c(C(=O)O)c1)C(=O)Nc1cccn(CC(=O)NCCC(C)C)c1=O` [A23, (S,E)-5-(N-(7-Ethoxy-1-(1-(2-(isopentylamino)-2-oxoethyl)-2-oxo-1,2-dihydropyridin-3-ylamino)-1,7-dioxohept-5-en-2-yl)sulfamoyl)-2-hydroxybenzoic acid] it was 475 nM.
